According to EP1933809B1, “COMPOSITIONS FOR NASAL DELIVERY” (YISSUM RESEARCH DEVELOPMENT COMPANY OF THE HEBREW …, priority 2005, dated 2007):

How the values were obtained:
Plasmodium berghei anka = test: Treatment and prophylaxis of malaria in infected mice, model of cerebral malaria (Example 12); assay type: in vivo; settings: 10mg DHA/kg/day, ICR female mice; for mice survived: treatment regimen (from day 2 after infection, 4 days)
Method: Experiments were carried out in vivo in ICR female mice infected with 10^6 erythrocytes parasitized Plasmodium berghei anka, a model of cerebral malaria with striking similarities to the human disease. Infections were monitored using giemsa-stained thin blood smears prepared from tail blood. The animals were treated under isoflurane anesthesia with 10mg DHA/kg/day in a two divided daily doses by two dosage regimens: prophylaxis regimen- starting at 2 days before the infection for a total of 6 days; treatment regimen- starting on day 2 after infection (parasitemia first detected) for a total of 4 days. Mice were either treated by the intranasal administration or by the i.p. injection containing the same DHA doses. Controls included placebo (delivery carrier only) and untreated infected animals. Experiments were conducted in accordance with institutional guidelines for animal care.

Female Balb/c mice = test: Writhing test in mice, writhing induced by IP acetic acid (Example 13); assay type: in vivo
Method: Experiments 1: The experiments were carried out on Female Balb/c mice (21-26g). Two experimental groups were used: control (untreated) (n=6) and treated group (n=6). […] Half an hour after nasal application, each animal in treated and control groups was IP administered with acetic acid 0.6% (10 ml/kg) and individually housed in cage with a smooth flat floor. Antinociception effect was recorded by counting the number of writhes 5 minutes after injection of acetic acid for period of 10 minutes. A writhe is indicated by abdominal constriction and stretching of at least one hind limb.
Experiment 2: The experiment was carried out on Female Balb/c mice (21-26g). Two experimental groups were used: control (untreated) (n=6) and treated group (n=6). […] Immediately after nasal application (t=0), each animal in treated and control groups was IP administered with acetic acid 0.6% (10 ml/kg) and individually housed in cage with a smooth flat floor. Antinociception was recorded by counting the number of writhes 5 minutes after injection of acetic acid for period of 10 minutes.
Experiment 3: The experiments were carried out on Female Balb/c mice (21-26g). Three experimental groups were used: control (untreated) (n=4), mice intranasally administered with the Diazepam IN vesicular composition (2.8µl in each nostril = diazepam dose of 5mg/kg animal) (n=4), and mice subcutaneously administered with the Diazepam solution 0.125 % at dose of 5mg/kg animal (n=4). […] Simultaneously, each animal in treated and control groups was IP administered with acetic acid 0.6% (10 ml/kg) and individually housed in cage with a smooth flat floor. Antinociception was recorded by counting the number of writhes 5 minutes after injection of acetic acid for period of 10 minutes.

nasal mucosa = test: Transport of fluorescent probe across nasal mucosa after in vivo administration, CLS microscopy (Example 15); settings: composition of the invention with 0.05% Rhodamine B, 100µL to the right nostril of rats, 1/2 hour
Method: A stock solution of Rhodamine B (2mg/mL) was prepared in water. 50mg of phospholipid were dissolved in 200 mg ethanol. […] The composition is stirred for additional 5 min. The composition is described in Table IV.

C[C@H]1[C@@H](O)O[C@@H]2O[C@@]3(C)CC[C@H]4[C@H](C)CC[C@@H]1[C@@]24OO3 [DHA, dihydroartemisinin]
mice in which parasites appeared (Plasmodium berghei anka; prophylaxis regimen, i.p. injection): 74% | mice survived (Plasmodium berghei anka; i.p. injection): 19% | mice survived (Plasmodium berghei anka; intranasal): 75%

CN1C(=O)CN=C(c2ccccc2)c2cc(Cl)ccc21 [diazepam, 7-chloro-1,3-dihydro-1-methyl-5-phenyl-2H-1,4-benzo-diazepin-2-one]
writhing episodes (number of writhes) (Female Balb/c mice; Experiment 1: intranasal vesicular composition, 5mg/kg, 0.5 h before acetic acid injection, versus untreated control): efficiently prevented writhing episodes | writhing episodes (number of writhes) (Female Balb/c mice; Experiment 2: intranasal vesicular composition, 5mg/kg, simultaneously with acetic acid injection, versus untreated control): efficient in treating writhing episodes | writhing episodes (number of writhes) (Female Balb/c mice; Experiment 3: intranasal vesicular composition 5mg/kg versus subcutaneous diazepam solution 5mg/kg, simultaneously with acetic acid injection): significantly more efficient in treating writhing episodes as compared to the same dose of the drug administered subcutaneously

CCN(CC)c1ccc2c(-c3ccccc3C(=O)O)c3ccc(=[N+](CC)CC)cc-3oc2c1.[Cl-] [rhodamine B, Rhodamine B]
transport across the nasal mucosa (nasal mucosa): efficiently delivered
